The text below walks through data of US7288554B2, “Ortho-substituted aryl amides for controlling invertebrate pests” (E.I. du Pont de Nemours and Company, priority 2001, dated 2007).

Molecules are shown by their SMILES.

As usually defined, the melting point is the temperature of the solid-liquid transition. With `Cc1cccc(S(=O)(=O)NC(C)C)c1NC(=O)c1cc(C(F)(F)F)nn1-c1ncccc1Cl` [Compound B3, 1-(3-Chloro-2-pyridinyl)-N-[2-methyl-6-[[(1-methylethyl)amino]sulfonyl]phenyl]-3-(trifluoromethyl)-1H-pyrazole-5-carboxamide], the melting point lay within 69 to 73 °C.
